Results as given in ChEMBL document CHEMBL3745645, “Synthesis, in vitro antitumor activity, dihydrofolate reductase inhibition, DNA intercalation and structure-activity relationship studies of 1,3,5-triazine analogues” (Bioorg Med Chem Lett, 2016).
The source made the active and inactive calls. The rule behind the calls is not given here.

Tests used:
[1] = Cytotoxicity against human Caki1 cells at 10 uM after 48 hrs by SRB assay; assay type: functional; settings: CAKI-1, 48 h, read-out: GI
[2] = Cytotoxicity against human TK10 cells at 10 uM after 48 hrs by SRB assay; assay type: functional; settings: TK-10, 48 h, read-out: GI
[3] = Cytotoxicity against human UO31 cells at 10 uM after 48 hrs by SRB assay; assay type: functional; settings: UO-31, 48 h, read-out: GI
[4] = Cytotoxicity against human PC3 cells at 10 uM after 48 hrs by SRB assay; assay type: functional; settings: PC-3, 48 h, read-out: GI
MCF7 = experiment: Cytotoxicity against human MCF7 cells at 10 uM after 48 hrs by SRB assay; assay type: functional; settings: MCF7, 48 h, read-out: GI
[5] = Cytotoxicity against human Hs 578T cells at 10 uM after 48 hrs by SRB assay; assay type: functional; settings: read-out: GI
[6] = Cytotoxicity against human BT549 cells at 10 uM after 48 hrs by SRB assay; assay type: functional; settings: BT-549, 48 h, read-out: GI
[7] = Cytotoxicity against human MOLT4 cells after 48 hrs by SRB assay; assay type: functional; settings: MOLT-4, 48 h, read-out: LC50 (the source's name)
A549 [8] = experiment: Cytotoxicity against human A549 cells after 48 hrs by SRB assay; assay type: functional; settings: A549, 48 h, pooled result: one value given for 8 cell lines, strains, targets or settings
[9] = Cytotoxicity against human COLO205 cells after 48 hrs by SRB assay; assay type: functional; settings: COLO 205, 48 h, pooled result: one value given for 7 cell lines, strains, targets or settings
[10] = Cytotoxicity against human SF268 cells after 48 hrs by SRB assay; assay type: functional; settings: SF-268, 48 h, pooled result: one value given for 6 cell lines, strains, targets or settings
786-0 [11] = experiment: Cytotoxicity against human 786-0 cells after 48 hrs by SRB assay; assay type: functional; settings: 786-0, 48 h, pooled result: one value given for 8 cell lines, strains, targets or settings
Calf thymus DNA [12] = experiment: Binding affinity to calf thymus DNA by UV-vis spectrometric analysis; assay type: nucleic-acid assay; settings: Bos taurus
Calf thymus DNA [13] = experiment: Binding affinity to calf thymus DNA by fluorescence spectrophotometric analysis; assay type: nucleic-acid assay; settings: Bos taurus
Calf thymus DNA [14] = experiment: Binding affinity to calf thymus DNA assessed as melting temperature by spectrophotometric analysis (reference value: 60 degC); assay type: nucleic-acid assay; settings: Bos taurus
K562 = experiment: Cytotoxicity against human K562 cells at 10 uM after 48 hrs by SRB assay; assay type: functional; settings: K562, 48 h, read-out: GI
[15] = (§1) Cytotoxicity against human RPMI8226 cells at 10 uM after 48 hrs by SRB assay; assay type: functional; settings: RPMI-8226, 48 h, read-out: GI
A549 [16] = experiment: Cytotoxicity against human A549 cells at 10 uM after 48 hrs by SRB assay; assay type: functional; settings: A549, 48 h, read-out: GI
[17] = Cytotoxicity against human HOP62 cells at 10 uM after 48 hrs by SRB assay; assay type: functional; settings: HOP-62, 48 h, read-out: GI
NCI-H23 = experiment: Cytotoxicity against human NCI-H23 cells at 10 uM after 48 hrs by SRB assay; assay type: functional; settings: NCI-H23, 48 h, read-out: GI
HCC 2998 = experiment: (§2) Cytotoxicity against human HCC2998 cells at 10 uM after 48 hrs by SRB assay; assay type: functional
[18] = Cytotoxicity against human HCT116 cells at 10 uM after 48 hrs by SRB assay; assay type: functional; settings: HCT-116, 48 h, read-out: GI
[19] = Cytotoxicity against human HCT15 cells at 10 uM after 48 hrs by SRB assay; assay type: functional; settings: HCT-15, 48 h, read-out: GI
[20] = Cytotoxicity against human SF295 cells at 10 uM after 48 hrs by SRB assay; assay type: functional; settings: SF-295, 48 h, read-out: GI
[21] = Cytotoxicity against human SNB19 cells at 10 uM after 48 hrs by SRB assay; assay type: functional; settings: SNB-19, 48 h, read-out: GI
[22] = Cytotoxicity against human SNB75 cells at 10 uM after 48 hrs by SRB assay; assay type: functional; settings: SNB-75, 48 h, read-out: GI
M14 = experiment: Cytotoxicity against human M14 cells at 10 uM after 48 hrs by SRB assay; assay type: functional; settings: M14, 48 h, read-out: GI
MDA-MB-435 = experiment: Cytotoxicity against human MDA-MB-435 cells at 10 uM after 48 hrs by SRB assay; assay type: functional; settings: MDA-MB-435, 48 h, read-out: GI
SK-MEL-28 = experiment: Cytotoxicity against human SK-MEL-28 cells at 10 uM after 48 hrs by SRB assay; assay type: functional; settings: SK-MEL-28, 48 h, read-out: GI
UACC-257 = experiment: (§3) Cytotoxicity against human UACC257 cells at 10 uM after 48 hrs by SRB assay; assay type: functional
[23] = Cytotoxicity against human UACC62 cells at 10 uM after 48 hrs by SRB assay; assay type: functional; settings: UACC-62, 48 h, read-out: GI
[24] = Cytotoxicity against human IGROV1 cells at 10 uM after 48 hrs by SRB assay; assay type: functional; settings: IGROV-1, 48 h, read-out: GI
OVCAR-4 = experiment: (§4) Cytotoxicity against human OVCAR4 cells at 10 uM after 48 hrs by SRB assay; assay type: functional
OVCAR-5 = experiment: Cytotoxicity against human OVCAR5 cells at 10 uM after 48 hrs by SRB assay; assay type: functional
786-0 [25] = experiment: Cytotoxicity against human 786-0 cells at 10 uM after 48 hrs by SRB assay; assay type: functional; settings: 786-0, 48 h, read-out: GI
ACHN = experiment: Cytotoxicity against human ACHN cells at 10 uM after 48 hrs by SRB assay; assay type: functional; settings: read-out: GI
RPMI-8226 = experiment: as §1; assay type: functional
[26] = as §2; assay type: functional; settings: HCC 2998, 48 h, read-out: GI
[27] = as §3; assay type: functional; settings: UACC-257, 48 h, read-out: GI
[28] = as §4; assay type: functional; settings: OVCAR-4, 48 h, read-out: GI
[29] = Cytotoxicity against human NCI-ADR-RES cells at 10 uM after 48 hrs by SRB assay; assay type: functional; settings: read-out: GI

## Cc1nc2ccc(Nc3nc(Cl)nc(Nc4ccc(F)cc4)n3)cc2n1Cc1ccccc1
[1]
  inhibition of growth at 10 µM: 13.1%
[2]
  inhibition of growth at 10 µM: 7.64%
[3]
  inhibition of growth at 10 µM: 62.9%
[4]
  inhibition of growth at 10 µM: 19.2%
MCF7
  inhibition of growth at 10 µM: 37.4%
[5]
  inhibition of growth at 10 µM: 11.1%
[6]
  inhibition of growth at 10 µM: 39.8%
[7]
  CC50: > 100 µM
A549 [8]
  GI50: 6.23 µM
  LC50: 69.6 µM
  TGI: 20.3 µM
[9]
  GI50: 4.91 µM
  LC50: 54.6 µM
  TGI: 18.1 µM
[10]
  GI50: 6.39 µM
  LC50 (concentration killing 50% of cells): 43.5 µM
  TGI: 24.3 µM
786-0 [11]
  GI50: 7.49 µM
  LC50 (concentration killing 50% of cells): 55.5 µM
  TGI: 30 µM
Calf thymus DNA [12]
  Ka: 6.03 ×10⁴ /M
Calf thymus DNA [13]
  Ka: 2.97 ×10⁴ /M
Calf thymus DNA [14]
  Tm: 57 °C
K562
  inhibition of growth at 10 µM: 63.1%
[15]
  inhibition of growth at 10 µM: 87.5%
A549 [16]
  inhibition of growth at 10 µM: 23.8%
[17]
  inhibition of growth at 10 µM: 56.1%
NCI-H23
  inhibition of growth at 10 µM: 11.8%
HCC 2998
  growth inhibition (GI): inactive
[18]
  inhibition of growth at 10 µM: 55.8%
[19]
  inhibition of growth at 10 µM: 44.2%
[20]
  inhibition of growth at 10 µM: 21.8%
[21]
  inhibition of growth at 10 µM: 12%
[22]
  inhibition of growth at 10 µM: 4.24%
M14
  inhibition of growth at 10 µM: 17.7%
MDA-MB-435
  inhibition of growth at 10 µM: 11.2%
SK-MEL-28
  inhibition of growth at 10 µM: 8.45%
UACC-257
  growth inhibition (GI): inactive
[23]
  inhibition of growth at 10 µM: 48.6%
[24]
  inhibition of growth at 10 µM: 33.3%
OVCAR-4
  growth inhibition (GI): inactive
OVCAR-5
  growth inhibition (GI): inactive
786-0 [25]
  inhibition of growth at 10 µM: 20.4%
ACHN
  inhibition of growth at 10 µM: 28.4%

## Cc1nc2cc(Nc3nc(Nc4ccc(F)cc4)nc(-c4cccs4)n3)ccc2n1Cc1ccccc1
[1]
  inhibition of growth at 10 µM: 29.8%
[2]
  inhibition of growth at 10 µM: 37.3%
[3]
  inhibition of growth at 10 µM: 63.5%
[4]
  inhibition of growth at 10 µM: 70.6%
MCF7
  inhibition of growth at 10 µM: 67.1%
[5]
  inhibition of growth at 10 µM: 49.7%
[6]
  inhibition of growth at 10 µM: 30.5%
[7]
  CC50: > 100 µM
A549 [8]
  GI50: 7.62 µM
  LC50: 55.4 µM
  TGI: 33.1 µM
[9]
  GI50: 3.23 µM
  LC50: 25.3 µM
  TGI: 17 µM
[10]
  GI50: 4.66 µM
  LC50 (concentration killing 50% of cells): 43 µM
  TGI: 14.4 µM
786-0 [11]
  GI50: 4.54 µM
  LC50 (concentration killing 50% of cells): > 100 µM
  TGI: 43.5 µM
Calf thymus DNA [12]
  Ka: 3.19 ×10⁴ /M
Calf thymus DNA [13]
  Ka: 4.21 ×10⁴ /M
Calf thymus DNA [14]
  Tm: 68.5 °C
K562
  inhibition of growth at 10 µM: 56.9%
RPMI-8226
  growth inhibition (GI): Active
A549 [16]
  inhibition of growth at 10 µM: 56.9%
[17]
  inhibition of growth at 10 µM: 7.68%
[26]
  inhibition of growth at 10 µM: 27.9%
[18]
  inhibition of growth at 10 µM: 75.8%
[19]
  inhibition of growth at 10 µM: 69.7%
[20]
  inhibition of growth at 10 µM: 48.1%
[21]
  inhibition of growth at 10 µM: 33.3%
[22]
  inhibition of growth at 10 µM: 47.8%
M14
  inhibition of growth at 10 µM: 46.9%
MDA-MB-435
  inhibition of growth at 10 µM: 56.2%
SK-MEL-28
  inhibition of growth at 10 µM: 25.7%
[27]
  inhibition of growth at 10 µM: 42.5%
[23]
  inhibition of growth at 10 µM: 38.5%
[24]
  inhibition of growth at 10 µM: 51.7%
[28]
  inhibition of growth at 10 µM: 49%
[29]
  inhibition of growth at 10 µM: 42.7%
786-0 [25]
  inhibition of growth at 10 µM: 62.5%
ACHN
  inhibition of growth at 10 µM: 54.4%
